Patent US20250000936A1, “TREATMENT OF GEOGRAPHIC ATROPHY” (Apellis Pharmaceuticals, Inc., priority 2021, published 2025)

Legend:
[1] = system: patients with geographic atrophy (GA) secondary to age-related macular degeneration (AMD); test: OAKS Phase 3 study: GA lesion growth in study eye by fundus autofluorescence; assay type: in vivo, human; conditions: for reduction in GA lesion growth from baseline compared to sham: over 24 months; for reduction in lesion growth in the study eye versus the untreated study eye, after adjusting for sham / reduction in lesion growth in the study eye versus the untreated study eye: bilateral GA; for reduction in lesion growth in the study eye versus the untreated study eye, after adjusting for sham / reduction in lesion growth in the study eye versus the untreated study eye / percentage reduction versus sham pooled: 18 months
[2] = system: patients with geographic atrophy (GA) secondary to age-related macular degeneration (AMD); test: DERBY and OAKS combined: GA lesion growth and visual function; assay type: in vivo, human; conditions: for reduction in GA lesion growth from baseline compared to sham: combined analysis (FIG. 30); for reduction in lesion growth, study eye vs untreated fellow eye: bilateral GA, 12 months (FIG. 7D); for reduction in foveal lesion growth vs pooled sham / reduction in extrafoveal GA lesion growth vs pooled sham: month 18; for reduction of GA lesion growth vs pooled sham: months 18-24
Excerpt: This Example describes 12-month results from two Phase 3 multi-center, randomized, double-masked, sham-controlled studies (“DERBY” and “OAKS”) to compare the efficacy and safety of intravitreal APL-2 (pegcetacoplan, also referred to as “Study Drug” in this Example) therapy with sham injections in patients with geographic atrophy (GA) secondary to age-related macular degeneration (AMD).
To participate in the studies, subjects must have been diagnosed with GA of the macula secondary to AMD in the study eye. At screening, male and female subjects were required to fulfill all of the following inclusion criteria to be eligible for participation in the study. If both eyes met the inclusion criteria, the eye with the worst normal luminance visual acuity at the screening visit was designated as the study eye. If both eyes had the same visual acuity, the right eye was selected as the study eye. Ocular-specific inclusion criteria applied to the study eye only, unless otherwise specified.
The design of the DERBY and OAKS studies are schematically depicted in FIG. 2. Each subject was assigned a unique screening number after signing the informed consent. Subjects who completed the study screening assessments and met all the eligibility criteria entered the study and were randomized on Day 1. As part of the screening process, the reading center evaluated FAF, OCT, Digital Color Fundus Photograph (DCFP), Near Infrared Reflectance (NIR), and fluorescein angiography (FA) to provide an objective assessment of subject eligibility. Subjects were randomized 2:2:1:1 to receive treatment with Study Drug monthly (PM), Study Drug every other month (PEOM), sham injection monthly (SM) or sham injection every other month (SEOM), respectively.
The Study Drug was pegcetacoplan (also referred to as “APL-2”) (see FIG. 1), which was provided for intravitreal injection at 15 mg/0.1 mL (150 mg/mL) as a sterile, isotonic solution of pegcetacoplan in acetate-buffer, pH 5.0, containing trehalose, supplied in stoppered glass vials.
The primary endpoint in the studies was the change from baseline to Month 12 in total area of GA lesion(s) in the study eye (in mm^2) based on Fundus Autofluorescence (FAF). Key secondary endpoints included change from baseline in the mean threshold sensitivity of all points (study eye) assessed by mesopic microperimetry at Month 24; change from baseline in monocular maximum reading speed (study eye), at Month 24 as assessed by MNRead or Radner reading charts (in select sites); change from baseline in mean FRI Index score (subject-level assessment) at Month 24; and change from baseline in NL-BCVA score (study eye) at Month 24 as assessed by Early Treatment Diabetic Retinopathy Study (ETDRS) chart. Additional secondary endpoints included change from baseline in LL-BCVA score (study eye) over time as assessed by ETDRS chart; change from baseline in the total area of GA lesion(s) in the study eye (in mm^2) as assessed by FAF over time other than Month 12; change from baseline in monocular critical print size (study eye), as assessed by MNRead or Radner reading charts (in select sites) over time; change from baseline in the NEI VFQ-25 distance activity subscale score (in select sites) (subject level assessment) over time; change from baseline in the number of scotomatous points assessed by mesopic microperimetry over time; and change from baseline in the mean threshold sensitivity within 500 microns outside the GA lesion, (perilesional points) assessed by mesopic microperimetry over time.
Two sham treatment arms (SM and SEOM) were pooled into a single control (Sham) group for analyses.
Subjects were analyzed in the treatment arm assigned at randomization.
Unless otherwise noted, hypothesis testing and estimation of treatment effects will be performed with a mixed effect model for repeated measure (MMRM) that includes data from all three treatment arms (PM, PEOM, and Sham). […]

[3] = post-hoc quartiles of GA lesion growth over 18 months (FIG. 27)

Poly(oxy-1,2-ethanediyl), α-hydro-ω-hydroxy-, 15,15′-diester with N-acetyl-L-isoleucyl-L-cysteinyl-L-valyl-1-methyl-L-tryptophyl-L-glutaminyl-L-α-aspartyl-L-tryptophylglycyl-L-alanyl-L-histidyl-L-arginyl-L-cysteinyl-L-threonyl-2-[2-(2-aminoethoxy) ethoxy]acetyl-N^6-carboxy-L-lysinamide cyclic (2->12)-(disulfide) [pegcetacoplan]
reduction of GA lesion growth versus sham ([1]; EOM, months 18-24, p=0.0007): 25% | reduction in GA lesion growth from baseline compared to sham ([1]; EOM, p 0.0002 nominal): 18% | reduction in lesion growth in the study eye versus the untreated study eye, after adjusting for sham ([1]; every other month): 15% | reduction in lesion growth in the study eye versus the untreated study eye ([1]; every other month, p=0.1274): 7% | reduction in lesion growth in the study eye versus the untreated study eye, after adjusting for sham ([1]; monthly): 26% | reduction in lesion growth in the study eye versus the untreated study eye ([1]; monthly, p<0.0001): 19% | reduction in GA lesion growth versus sham ([1]; distance >250 microns, every other month, p=0.1203): 15% | reduction in GA lesion growth versus sham ([1]; distance ≤250 microns, monthly, p=0.0002): 22% | percentage reduction versus sham pooled ([1]; every other month, >50 microns, p=0.0430): 17% | percentage reduction versus sham pooled ([1]; every other month, >100 microns, p=0.0338): 18% | percentage reduction versus sham pooled ([1]; every other month, >150 microns, p=0.0575): 17% | percentage reduction versus sham pooled ([1]; every other month, >200 microns, p=0.1002): 15% | reduction in GA lesion growth vs pooled sham ([1]; every other month, month 12, p=0.0052): 16% | reduction in extrafoveal GA lesion growth vs pooled sham ([1]; every other month, month 18, p 0.0422): 17% | reduction in GA lesion growth, covariate-adjusted post-hoc analysis ([1]; every other month, month 18, p=0.0002): 18% | reduction in foveal GA lesion growth, covariate-adjusted ([1]; every other month, month 18, p=0.0008): 19% | reduction in GA lesion growth vs pooled sham ([1]; every other month, month 18, p=0.0018 nominal): 16% | reduction in foveal GA lesion growth vs pooled sham ([1]; every other month, month 18, p=0.0020): 19% | reduction in extrafoveal GA lesion growth, covariate-adjusted ([1]; every other month, month 18, p=0.0673): 15% | percentage reduction versus sham pooled ([1]; monthly, >100 microns, p<0.0001): 34% | percentage reduction versus sham pooled ([1]; monthly, >150 microns, p<0.0001): 34% | percentage reduction versus sham pooled ([1]; monthly, >200 microns, p<0.0001): 34% | percentage reduction versus sham pooled ([1]; monthly, distance to foveal center point >50 microns, p<0.0001): 33% | reduction in GA lesion growth vs pooled sham ([1]; monthly, month 12, p=0.0003): 22% | reduction in GA lesion growth, covariate-adjusted post-hoc analysis ([1]; monthly, month 18, p<0.0001): 26% | reduction in extrafoveal GA lesion growth vs pooled sham ([1]; monthly, month 18, p<0.0001): 33% | reduction in extrafoveal GA lesion growth, covariate-adjusted ([1]; monthly, month 18, p<0.0001): 33% | reduction in GA lesion growth vs pooled sham ([1]; monthly, month 18, p<0.0001 nominal): 22% | reduction in foveal GA lesion growth, covariate-adjusted ([1]; monthly, month 18, p=0.0044): 19% | reduction in foveal GA lesion growth vs pooled sham ([1]; monthly, month 18, p=0.0105): 18% | reduction of GA lesion growth versus sham ([1]; monthly, months 18-24, p=0.0080): 24% | reduction in GA lesion growth from baseline compared to sham ([1]; monthly, p<0.0001 nominal): 22% | decrease of patients in Q4 (fast progressors), relative to sham [1, 3]: 43% | increase of patients in Q1 (slow progressors), relative to sham [1, 3]: 83% | reduction in GA lesion growth from baseline compared to sham ([2]; EOM, p<0.0001): 24% | reduction in GA lesion growth from baseline compared to sham ([2]; monthly, p<0.0001): 30% | key secondary endpoints measuring visual function, pegcetacoplan vs sham ([2]; combined, 24 months (FIG. 31, NL-BCVA)): no clinically meaningful difference | reduction in lesion growth, study eye vs untreated fellow eye ([2]; combined, every other month): 11% | reduction in lesion growth, study eye vs untreated fellow eye ([2]; combined, monthly): 16% | reduction in GA lesion growth vs pooled sham ([2]; combined, every other month, month 12, p<0.0012): 14% | reduction in foveal lesion growth vs pooled sham ([2]; combined, every other month, p 0.0069): 13% | reduction in extrafoveal GA lesion growth vs pooled sham ([2]; combined, every other month, p=0.0006): 21% | reduction in GA lesion growth vs pooled sham ([2]; combined, every other month, months 0-6 segment): 12% | reduction in GA lesion growth vs pooled sham ([2]; combined, every other month, months 12-18 segment): 17% | reduction of GA lesion growth vs pooled sham ([2]; combined, extrafoveal lesions, EOM): 28% | reduction in GA lesion growth vs pooled sham ([2]; combined, extrafoveal lesions, every other month, 12 months, p=0.0002): 23% | reduction in GA lesion growth vs pooled sham ([2]; combined, extrafoveal lesions, monthly, 12 months, p<0.0001): 26% | reduction of GA lesion growth vs pooled sham ([2]; combined, extrafoveal lesions, monthly): 28% | reduction of GA lesion growth vs pooled sham ([2]; combined, foveal lesions, EOM): 28% | reduction of GA lesion growth vs pooled sham ([2]; combined, foveal lesions, monthly): 34% | reduction in GA lesion growth vs pooled sham ([2]; combined, monthly, month 12, p<0.0001): 17% | reduction in extrafoveal GA lesion growth vs pooled sham ([2]; combined, monthly, p<0.0001): 26% | reduction in foveal lesion growth vs pooled sham ([2]; combined, monthly, p=0.0070): 13% | reduction in GA lesion growth vs pooled sham ([2]; combined, monthly, months 0-6 segment (FIG. 12B)): 13% | reduction in GA lesion growth vs pooled sham ([2]; combined, monthly, months 12-18 segment (FIG. 12B)): 21%
